Test results reported in ChEMBL document CHEMBL1268913, “Carbocycles related to oseltamivir as influenza virus group-1-specific neuraminidase inhibitors. Binding to N1 enzymes in the context of virus-like particles” (J Med Chem, 2010).

System: unidentified influenza virus
Experiment: Antiviral activity against avian influenza virus H5N1
Type: functional, organism-based

Question: How did the EC50 turn out when CCC(O)c1cn([C@H]2C=C(C(=O)O)O[C@@H]([C@H](O)[C@H](O)CO)[C@@H]2NC(C)=O)nn1 (some centres not stated) was run?
Answer: The EC50 was 6.4 µM.

Biological target: Neuraminidase (Influenza A virus, UniProt B4URF0)
Experiment: Inhibition of influenza A nuraminidase N1

Neuraminidase, sequence (B4URF0 whole entry): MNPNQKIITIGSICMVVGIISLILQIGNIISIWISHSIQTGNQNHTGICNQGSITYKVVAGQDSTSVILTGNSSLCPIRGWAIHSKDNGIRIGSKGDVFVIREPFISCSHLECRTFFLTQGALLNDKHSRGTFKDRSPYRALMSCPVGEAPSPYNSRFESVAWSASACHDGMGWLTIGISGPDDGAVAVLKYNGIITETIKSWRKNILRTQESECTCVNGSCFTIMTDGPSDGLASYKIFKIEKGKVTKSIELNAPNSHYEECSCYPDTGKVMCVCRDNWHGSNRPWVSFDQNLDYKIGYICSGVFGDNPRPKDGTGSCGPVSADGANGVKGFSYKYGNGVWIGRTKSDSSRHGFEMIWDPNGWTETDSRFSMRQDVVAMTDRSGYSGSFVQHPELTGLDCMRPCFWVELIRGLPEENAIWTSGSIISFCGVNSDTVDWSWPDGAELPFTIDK

Question: How did the Ki turn out when CCC(CC)O[C@@H]1CC(C(=O)O)=C[C@H](n2cc(CCc3ccccc3)nn2)[C@H]1NC(C)=O was run?
Answer: The Ki was 1.2 µM.

Question: With CCC(CC)O[C@@H]1CC(C(=O)O)=C[C@H](n2cc([C@]3(O)CC[C@H]4[C@@H]5CCc6cc(O)ccc6[C@H]5CC[C@@]43C)nn2)[C@H]1NC(C)=O as the compound, how does the Ki read?
Answer: Its Ki is 5.8 µM.

Question: With CCC(CC)O[C@@H]1CC(C(=O)O)=C[C@H](NC(=N)N)[C@H]1NC(C)=O as the compound, how does the Ki read?
Answer: Its Ki is 0.00046 µM.

Question: CCC(CC)O[C@@H]1CC(C(=O)O)=C[C@H](n2cc(C3(O)CCCCC3)nn2)[C@H]1NC(C)=O was tested. Which IC50 did it give?
Answer: Its IC50 is 4.8 µM.

Question: Which Ki does the source give for CCC(CC)O[C@@H]1CC(C(=O)O)=C[C@H](n2cc(CCCO)nn2)[C@H]1NC(C)=O here?
Answer: Its Ki is 0.46 µM.

Question: With CC(=O)N[C@H]1[C@H]([C@H](O)[C@H](O)CO)OC(C(=O)O)=C[C@@H]1O [NEU5AC2EN] as the compound, how does the Ki read?
Answer: The Ki was 5.9 µM.

Question: Which Ki does the source give for CCC(CC)O[C@@H]1CC(C(=O)O)=C[C@H](n2cc(C(C)(C)O)nn2)[C@H]1NC(C)=O here?
Answer: The Ki was 0.13 µM.

Question: CCC(CC)O[C@@H]1CC(C(=O)O)C=C(n2cc(CCc3ccccc3)nn2)[C@H]1NC(C)=O (mixture of isomers) was tested. Which Ki did it give?
Answer: The Ki was 60 µM.

Question: CCC(CC)O[C@@H]1CC(C(=O)O)=C[C@H](n2cc(C3(O)CCCC3)nn2)[C@H]1NC(C)=O was tested. Which IC50 did it give?
Answer: The IC50 was 11 µM.

Question: Which Ki does the source give for CCC(CC)O[C@@H]1CC(C(=O)O)=C[C@H](n2cc(C(O)CC)nn2)[C@H]1NC(C)=O (some centres not stated) here?
Answer: The Ki was 0.072 µM.

Question: CCC(CC)O[C@@H]1CC(C(=O)O)C=C(n2cc(C(C)(C)O)nn2)[C@H]1NC(C)=O (mixture of isomers) was tested. Which Ki did it give?
Answer: Its Ki is 19 µM.
